Test results taken from ChEMBL document CHEMBL1201862, “PubChem BioAssay data set” (2004).
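A five-concentration, 48-hour dose response in 96-well plates underlies each endpoint, interpolated linearly between surrounding concentrations. GI50: concentration for 50% inhibition of growth.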 Active and inactive are the calls of the source. No stated cut-off is given here; in the data, active = GI50 up to about 1.1 µM and inactive = higher. Square brackets hold non-standard residues; d marks the D form. Peptide text beside a SMILES is read from it. 2Nal = N[CH](Cc1ccc2ccccc2c1)C(=O)O

Experiments:
Assay in all cases: NCI anticancer screen, dose series, 48 h
KM-20L2 = system: KM-20L2
DMS-114 = system: DMS-114
HOP-18 = system: HOP-18
DLD-1 = system: DLD-1
DMS-273 = system: DMS-273
LXFL 529 = system: LXFL 529
XF498 = system: XF498
RXF 631 = system: RXF 631
SNB-78 = system: SNB-78

Measured: GI50

CC(C)C(NC(=O)C(CCCCN)NC(=O)C(Cc1c[nH]c2ccccc12)NC(=O)C(Cc1ccc(O)cc1)NC(=O)C(CS)NC(=O)C(N)Cc1ccc2ccccc2c1)C(=O)NC(CS)C(=O)NC(C(N)=O)C(C)O (centres undefined) (H-[2Nal]CYWKVCT-NH2; configuration not given here)
inactive: KM-20L2 > 100 µM | DMS-114 > 100 µM | HOP-18 > 100 µM | DLD-1 > 100 µM | DMS-273 > 100 µM | LXFL 529 > 100 µM | XF498 > 100 µM | RXF 631 > 100 µM | SNB-78 8.15 µM
